In paper PMC3867360, “Membrane Interactions of S100A12 (Calgranulin C)” (PLoS ONE, 2013):

Target: T1, porcine S100A12 (Calgranulin C) (Sus scrofa, UniProt P80310)
T1 construct: pET28a-S100A12 in E. coli BL21(DE3); N-terminal or other His-tag cut with thrombin; non-covalent antiparallel homodimer; apo form in SPR
T1 sequence (P80310 1-92 limits assumed): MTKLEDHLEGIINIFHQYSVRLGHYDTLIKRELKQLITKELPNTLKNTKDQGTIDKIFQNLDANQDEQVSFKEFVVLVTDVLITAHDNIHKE
Assay: SPR, Biacore X, L1 sensorchip, immobilized LUVs
Assay type: binding
Excerpt: SPR, Biacore X, L1 sensorchip, immobilized LUVs on porcine S100A12 (Calgranulin C)

SMILES | Kd [µM]
CCCCCCCCCCCCCCCC(=O)OC[C@H](COP(=O)([O-])OCC[N+](C)(C)C)OC(=O)CCCCCCCCCCCCCCC [DPPC, 1,2-dipalmitoyl-sn-glycero-3-phosphocholine] | 5.9
CCCCCCCCCCCCCCCC(=O)OC[C@H](COP(=O)(O)OCC(O)CO)OC(=O)CCCCCCCCCCCCCCC (some centres unmarked) [DPPG, 1,2-dipalmitoyl-sn-glycero-3-phosphoglycerol] | 0.63
